From PMC4669708 (Cell Death & Disease, 2015)

Tests used:
Assay in all cases: c-ponatinib pulldown LC-MS/MS
Type in all cases: binding
MAP4K2 = biological target: T1, MAP4K2 (Homo sapiens, UniProt Q12851)
T1 sequence (Q12851 1-820): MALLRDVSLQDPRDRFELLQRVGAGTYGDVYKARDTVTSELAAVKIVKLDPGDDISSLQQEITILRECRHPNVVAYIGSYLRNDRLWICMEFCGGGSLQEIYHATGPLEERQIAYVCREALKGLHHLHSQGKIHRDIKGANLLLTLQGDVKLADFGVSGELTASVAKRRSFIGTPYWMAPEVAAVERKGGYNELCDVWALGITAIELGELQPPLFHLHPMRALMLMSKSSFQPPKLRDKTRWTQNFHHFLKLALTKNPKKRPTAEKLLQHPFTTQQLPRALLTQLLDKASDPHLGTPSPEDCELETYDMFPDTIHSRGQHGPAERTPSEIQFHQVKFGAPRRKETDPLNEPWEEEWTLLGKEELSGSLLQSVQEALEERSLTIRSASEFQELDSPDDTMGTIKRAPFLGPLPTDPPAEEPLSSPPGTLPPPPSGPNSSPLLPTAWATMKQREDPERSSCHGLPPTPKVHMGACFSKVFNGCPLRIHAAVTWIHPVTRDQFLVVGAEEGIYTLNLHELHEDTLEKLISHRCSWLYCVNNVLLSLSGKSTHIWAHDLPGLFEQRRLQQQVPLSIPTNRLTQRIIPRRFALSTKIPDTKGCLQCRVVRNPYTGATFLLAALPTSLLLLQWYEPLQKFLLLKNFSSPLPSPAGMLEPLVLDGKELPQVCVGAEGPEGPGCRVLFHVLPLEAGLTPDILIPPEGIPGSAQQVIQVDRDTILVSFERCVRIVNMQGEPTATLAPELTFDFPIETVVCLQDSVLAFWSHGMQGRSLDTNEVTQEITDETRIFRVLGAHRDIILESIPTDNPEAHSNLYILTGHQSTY
Method in brief: (§1)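 Read-out: interaction P-value combining Mascot scores, Phenyx scores and spectral counts (Fisher's method), plus fold reduction of median spectral counts on free-compound competition. Proteins were enriched from 10 mg cell lysate on c-ponatinib beads, then trypsin-digested for LC-MS/MS.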

YWHAG = biological target: T2, YWHAG (Homo sapiens, UniProt P61981)
T2 sequence (P61981 1-247): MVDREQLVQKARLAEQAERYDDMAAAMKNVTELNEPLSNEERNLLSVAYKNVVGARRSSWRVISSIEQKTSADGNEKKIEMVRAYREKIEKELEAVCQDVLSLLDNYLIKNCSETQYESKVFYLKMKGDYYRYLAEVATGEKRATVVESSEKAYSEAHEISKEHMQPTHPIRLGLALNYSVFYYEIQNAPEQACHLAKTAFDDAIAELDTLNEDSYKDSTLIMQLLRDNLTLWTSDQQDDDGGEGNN
Method in brief: as §1

YWHAQ = biological target: T3, YWHAQ (Homo sapiens, UniProt P27348)
T3 sequence (P27348 1-245): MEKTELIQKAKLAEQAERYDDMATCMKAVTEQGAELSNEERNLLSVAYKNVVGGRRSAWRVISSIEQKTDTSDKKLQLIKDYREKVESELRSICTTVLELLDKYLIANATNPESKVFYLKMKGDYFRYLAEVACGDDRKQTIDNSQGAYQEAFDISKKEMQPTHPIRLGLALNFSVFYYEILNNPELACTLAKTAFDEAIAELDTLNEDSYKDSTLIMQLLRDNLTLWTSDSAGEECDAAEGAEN
Method in brief: as §1

CDK16 = CDK16 (Homo sapiens, UniProt Q00536)
Sequence of CDK16 (Q00536 whole entry): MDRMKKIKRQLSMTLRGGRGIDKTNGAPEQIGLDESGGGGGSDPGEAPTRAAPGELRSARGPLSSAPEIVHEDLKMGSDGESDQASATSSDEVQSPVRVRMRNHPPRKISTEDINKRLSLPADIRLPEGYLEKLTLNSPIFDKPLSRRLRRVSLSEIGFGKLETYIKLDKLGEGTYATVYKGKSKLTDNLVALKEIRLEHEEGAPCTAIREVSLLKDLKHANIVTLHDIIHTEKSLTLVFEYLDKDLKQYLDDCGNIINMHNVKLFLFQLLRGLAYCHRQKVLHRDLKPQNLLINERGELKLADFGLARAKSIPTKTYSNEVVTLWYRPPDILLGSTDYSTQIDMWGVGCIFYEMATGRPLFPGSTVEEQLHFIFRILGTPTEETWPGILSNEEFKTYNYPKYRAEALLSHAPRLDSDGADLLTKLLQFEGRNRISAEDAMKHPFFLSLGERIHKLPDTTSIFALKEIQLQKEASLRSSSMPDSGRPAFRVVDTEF
Method in brief: as §1

HSPA4 = HSPA4 (Homo sapiens, UniProt P34932)
Sequence of HSPA4 (P34932 whole entry): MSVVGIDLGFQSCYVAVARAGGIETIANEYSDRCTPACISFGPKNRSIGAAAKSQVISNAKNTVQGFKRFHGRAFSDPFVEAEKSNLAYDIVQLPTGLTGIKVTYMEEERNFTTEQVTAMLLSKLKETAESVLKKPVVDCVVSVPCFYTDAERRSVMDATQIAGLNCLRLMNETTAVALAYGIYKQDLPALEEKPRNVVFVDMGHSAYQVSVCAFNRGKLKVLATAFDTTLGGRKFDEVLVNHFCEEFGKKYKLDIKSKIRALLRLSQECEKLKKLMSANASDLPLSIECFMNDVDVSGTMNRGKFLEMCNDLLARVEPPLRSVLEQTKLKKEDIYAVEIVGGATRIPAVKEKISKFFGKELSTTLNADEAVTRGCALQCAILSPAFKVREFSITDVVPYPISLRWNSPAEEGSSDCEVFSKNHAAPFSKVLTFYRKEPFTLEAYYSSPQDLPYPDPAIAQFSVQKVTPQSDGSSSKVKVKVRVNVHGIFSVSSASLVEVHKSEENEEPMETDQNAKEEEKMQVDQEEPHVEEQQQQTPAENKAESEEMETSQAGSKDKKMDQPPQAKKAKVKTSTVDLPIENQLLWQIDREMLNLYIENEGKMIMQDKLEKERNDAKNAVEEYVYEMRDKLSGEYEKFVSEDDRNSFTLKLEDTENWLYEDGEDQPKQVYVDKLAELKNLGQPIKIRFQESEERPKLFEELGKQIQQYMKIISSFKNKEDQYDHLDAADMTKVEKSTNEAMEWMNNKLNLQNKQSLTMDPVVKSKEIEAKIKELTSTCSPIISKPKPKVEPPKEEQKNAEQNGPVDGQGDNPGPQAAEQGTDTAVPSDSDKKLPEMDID
Method in brief: as §1

Av. SC comp. (MAP4K2; + free ponatinib): 0
Total SC comp. (MAP4K2; + free ponatinib): 0
Av. SC (MAP4K2; no competitor): 2.5
Total SC (MAP4K2; no competitor): 10
Av. SC comp. (YWHAG; + free ponatinib): 3.25
Total SC comp. (YWHAG; + free ponatinib): 13
Av. SC (YWHAG; no competitor): 11.25
Total SC (YWHAG; no competitor): 45
Av. SC comp. (YWHAQ; + free ponatinib): 1.25
Total SC comp. (YWHAQ; + free ponatinib): 5
Av. SC (YWHAQ; no competitor): 9
Total SC (YWHAQ; no competitor): 36
Av. SC comp. (CDK16; + free ponatinib): 1.25
Total SC comp. (CDK16; + free ponatinib): 5
Av. SC (CDK16; no competitor): 10.75
Total SC (CDK16; no competitor): 43
Av. SC comp. (HSPA4; + free ponatinib): 1.75
Total SC comp. (HSPA4; + free ponatinib): 7
Av. SC (HSPA4; no competitor): 5.5
Total SC (HSPA4; no competitor): 22
SMILES: Cc1ccc(C(=O)Nc2ccc(CN3CCN(CCCN)CC3)c(C(F)(F)F)c2)cc1C#Cc1cnc2cccnn12 [c-ponatinib]
